Holding throughout (format): functional
Assay [1] relates to Staphylococcus aureus. Briefly: Antibacterial activity against methicillin-resistant Staphylococcus aureus 01-483 by broth microdilution method.
Assay [2] deals with Streptococcus pneumoniae. Briefly: Antibacterial activity against erythromycin-resistant Streptococcus pneumoniae 03-436 by broth microdilution method. (Dilution methods test growth across graded concentrations, often in twofold steps.)
Assay [3] deals with Staphylococcus aureus. Briefly: Antibacterial activity against methicillin-resistant Staphylococcus aureus 01-429 by broth microdilution method.
Assay [4] has as its system Streptococcus pyogenes. Briefly: Antibacterial activity against erythromycin-susceptible Streptococcus pyogenes 01-469 by broth microdilution method.
Assay [5] relates to Staphylococcus epidermidis. Briefly: Antibacterial activity against methicillin-resistant Staphylococcus epidermidis 01-1056 by broth microdilution method.
The subject of assay [6] is Staphylococcus aureus. Briefly: Antibacterial activity against methicillin-sensitive Staphylococcus aureus 01-481 by broth microdilution method.
For assay [7], the system named is Staphylococcus epidermidis. Briefly: Antibacterial activity against methicillin-resistant Staphylococcus epidermidis 01-1059 by broth microdilution method.
Assay [8] relates to Staphylococcus epidermidis. Briefly: Antibacterial activity against methicillin-sensitive Staphylococcus epidermidis 01-1091 by broth microdilution method.
In assay [9] the test system is Staphylococcus epidermidis. Briefly: Antibacterial activity against methicillin-resistant Staphylococcus epidermidis 01-1090 by broth microdilution method.
Assay [10] concerns Streptococcus pneumoniae. Briefly: Antibacterial activity against Streptococcus pneumoniae ATCC 49619 by broth microdilution method.
The subject of assay [11] is Streptococcus pyogenes. Briefly: Antibacterial activity against erythromycin-resistant Streptococcus pyogenes 03-680 by broth microdilution method.
Assay [12] has as its system Staphylococcus aureus. Briefly: Antibacterial activity against methicillin-resistant Staphylococcus aureus 01-433 by broth microdilution method.
Assay [13] relates to Staphylococcus epidermidis. Briefly: Antibacterial activity against methicillin-sensitive Staphylococcus epidermidis 01-1004 by broth microdilution method.
Assay [14] concerns Streptococcus pyogenes. Briefly: Antibacterial activity against erythromycin-susceptible Streptococcus pyogenes 01-804 by broth microdilution method.
Assay [15] concerns Streptococcus pyogenes. Briefly: Antibacterial activity against erythromycin-susceptible Streptococcus pyogenes 01-740 by broth microdilution method.
The test system of assay [16] is Streptococcus pneumoniae. Briefly: Antibacterial activity against erythromycin-resistant Streptococcus pneumoniae 03-458 by broth microdilution method.
For assay [17], the system named is Staphylococcus aureus. Briefly: Antibacterial activity against methicillin-sensitive Staphylococcus aureus 01-431 by broth microdilution method.
The subject of assay [18] is Streptococcus pneumoniae. Briefly: Antibacterial activity against erythromycin-resistant Streptococcus pneumoniae 03-451 by broth microdilution method.
Assay [19] relates to Staphylococcus aureus. Briefly: Antibacterial activity against methicillin-sensitive Staphylococcus aureus 01-430 by broth microdilution method.
In assay [20] the test system is Staphylococcus epidermidis. Briefly: Antibacterial activity against methicillin-sensitive Staphylococcus epidermidis 01-1005 by broth microdilution method.

This note sets out measurements from ChEMBL document CHEMBL1148023, “Synthesis and antibacterial activity of derivatives of 6-O-allylic acylides” (2007).

Each structure is given as a SMILES string. ≈ marks a conversion by molar mass, not a printed value.

For the compound `C=CCO[C@@H]1C[C@@H](C)C(=O)[C@H](C)[C@H]2OC(=O)O[C@]2(C)[C@@H](CC)OC(=O)[C@H](C)[C@@H](OC(=O)COc2ccccc2)[C@H](C)[C@H]1OC1O[C@H](C)C[C@H](N(C)C)[C@H]1O` (stereo not given in full), the MIC stood at 32 µg/mL (≈ 42 µM) in assay [1]; 32 µg/mL (≈ 42 µM) in assay [2]; 32 µg/mL (≈ 42 µM) in assay [3]; 0.5 µg/mL (≈ 0.656 µM) in [4]; 32 µg/mL (≈ 42 µM) in assay [5]; 32 µg/mL (≈ 42 µM) in assay [6]. Also, the minimum inhibitory concentration (MIC) was 32 µg/mL (≈ 42 µM) in [7]; 8 µg/mL (≈ 10.5 µM) in assay [8]; 32 µg/mL (≈ 42 µM) in assay [9]; 2 µg/mL (≈ 2.62 µM) in [10]; 16 µg/mL (≈ 21 µM) in assay [11]; 32 µg/mL (≈ 42 µM) in assay [12]. Moreover, the minimum inhibitory concentration (MIC) in [13] was 8 µg/mL (≈ 10.5 µM); in assay [14] it was 1 µg/mL (≈ 1.31 µM); in assay [15], 0.5 µg/mL (≈ 0.656 µM); in assay [16] it was 16 µg/mL (≈ 21 µM); in assay [17], 16 µg/mL (≈ 21 µM); in assay [18], 16 µg/mL (≈ 21 µM). The figures for the MIC in assay [19] and in [20] were 16 µg/mL (≈ 21 µM) and 8 µg/mL (≈ 10.5 µM), respectively.

For `C=CCO[C@@H]1C[C@@H](C)C(=O)[C@H](C)[C@H]2OC(=O)O[C@]2(C)[C@@H](CC)OC(=O)[C@H](C)[C@@H](OC(=O)Cc2cccc(F)c2)[C@H](C)[C@H]1O[C@@H]1O[C@H](C)C[C@H](N(C)C)[C@H]1O`, the minimal inhibitory concentration (MIC) in assay [1] amounted to 2 µg/mL (≈ 2.62 µM); in [2] it was 8 µg/mL (≈ 10.5 µM); in assay [3] it was 16 µg/mL (≈ 20.9 µM); in assay [4], 0.125 µg/mL (≈ 0.164 µM); in assay [5], 32 µg/mL (≈ 41.9 µM); in assay [6], 2 µg/mL (≈ 2.62 µM). The minimum inhibitory concentration (MIC) worked out at 2 µg/mL (≈ 2.62 µM) in [7]; 1 µg/mL (≈ 1.31 µM) in [8]; 1 µg/mL (≈ 1.31 µM) in assay [9]; 0.125 µg/mL (≈ 0.164 µM) in [10]; 16 µg/mL (≈ 20.9 µM) in [11]; 16 µg/mL (≈ 20.9 µM) in [12]. The MIC was 1 µg/mL (≈ 1.31 µM) in [13]; 0.125 µg/mL (≈ 0.164 µM) in assay [14]; 0.125 µg/mL (≈ 0.164 µM) in assay [15]; 2 µg/mL (≈ 2.62 µM) in assay [16]; 1 µg/mL (≈ 1.31 µM) in assay [17]; 4 µg/mL (≈ 5.24 µM) in [18]. Besides, the MIC in assay [19] and in assay [20] was 1 µg/mL (≈ 1.31 µM) in each case.

With `C=CCO[C@@H]1C[C@@H](C)C(=O)[C@H](C)[C@H]2OC(=O)O[C@]2(C)[C@@H](CC)OC(=O)[C@H](C)[C@@H](OC(=O)Cc2ccc3c(c2)OCO3)[C@H](C)[C@H]1O[C@@H]1O[C@H](C)C[C@H](N(C)C)[C@H]1O`, the MIC was determined as 1 µg/mL (≈ 1.27 µM) in assay [1]; 8 µg/mL (≈ 10.1 µM) in assay [2]; 32 µg/mL (≈ 40.5 µM) in assay [3]; 0.016 µg/mL (≈ 0.0203 µM) in assay [4]; 32 µg/mL (≈ 40.5 µM) in assay [5]; 1 µg/mL (≈ 1.27 µM) in assay [6]. Moreover, the MIC in assay [7] was 1 µg/mL (≈ 1.27 µM); in assay [8], 0.5 µg/mL (≈ 0.633 µM); in [9], 1 µg/mL (≈ 1.27 µM); in assay [10] it was 0.062 µg/mL (≈ 0.0785 µM); in assay [11], 16 µg/mL (≈ 20.3 µM); in assay [12], 32 µg/mL (≈ 40.5 µM). Further, the MIC in [13] was found to be 0.5 µg/mL (≈ 0.633 µM); in [14], 0.031 µg/mL (≈ 0.0392 µM); in assay [15], 0.016 µg/mL (≈ 0.0203 µM); in [16], 2 µg/mL (≈ 2.53 µM); in assay [17] it was 0.5 µg/mL (≈ 0.633 µM); in [18] it was 4 µg/mL (≈ 5.06 µM). For the same compound, the MIC in [19] and in assay [20] was 0.5 µg/mL (≈ 0.633 µM) each time.

`C=CCO[C@@H]1C[C@@H](C)C(=O)[C@H](C)[C@H]2OC(=O)O[C@]2(C)[C@@H](CC)OC(=O)[C@H](C)[C@@H](OC(=O)Cc2ccccc2Cl)[C@H](C)[C@H]1OC1O[C@H](C)C[C@H](N(C)C)[C@H]1O` (stereo not given in full): the MIC stood at 4 µg/mL (≈ 5.13 µM) in assay [1]; 8 µg/mL (≈ 10.3 µM) in [2]; 16 µg/mL (≈ 20.5 µM) in assay [3]; 0.062 µg/mL (≈ 0.0795 µM) in [4]; 32 µg/mL (≈ 41 µM) in assay [5]; 4 µg/mL (≈ 5.13 µM) in [6]. Moreover, the MIC in assay [7] amounted to 8 µg/mL (≈ 10.3 µM); in [8], 1 µg/mL (≈ 1.28 µM); in assay [9] it was 4 µg/mL (≈ 5.13 µM); in assay [10], 0.25 µg/mL (≈ 0.32 µM); in assay [11] it was 16 µg/mL (≈ 20.5 µM); in assay [12], 16 µg/mL (≈ 20.5 µM). For the same compound, the minimum inhibitory concentration (MIC) in [13] is 1 µg/mL (≈ 1.28 µM); in [14] it was 0.125 µg/mL (≈ 0.16 µM); in [15], 0.062 µg/mL (≈ 0.0795 µM); in [16], 2 µg/mL (≈ 2.56 µM); in [17], 1 µg/mL (≈ 1.28 µM); in assay [18] it was 4 µg/mL (≈ 5.13 µM). In addition, the MIC in assay [19] and in assay [20] was 1 µg/mL (≈ 1.28 µM) each time.

Usually MIC stands for the least concentration at which growth counts as inhibited.
